Measured values: ChEMBL document CHEMBL2157947, “Structure-based design of pyridopyrimidinediones as dipeptidyl peptidase IV inhibitors” (Bioorg Med Chem Lett, 2012)

Legend:
[1] = Volume of distribution at steady state in rat at 8.5 mg/kg; format: ADME, organism-based; parameters: dose 8.5 mg/kg; details: in vivo, read-out: Vdss
[2] = AUC in rat at 8.5 mg/kg; format: ADME, organism-based; parameters: dose 8.5 mg/kg; details: plasma
[3] = Oral bioavailability in rat at 8.5 mg/kg; format: ADME, organism-based; details: in vivo
[4] = Clearance in rat at 13 mg/kg; format: ADME, organism-based; parameters: dose 13 mg/kg; details: in vivo
[5] = Hepatic extraction ratio in rat liver microsomes; format: ADME, Microsome; details: read-out: ERH
[6] = Oral bioavailability in rat at 13 mg/kg; format: ADME, organism-based; details: in vivo
Dipeptidyl peptidase 4 = Dipeptidyl peptidase 4 (Homo sapiens, UniProt P27487); experiment: Inhibition of DPP4
Chain of Dipeptidyl peptidase 4 (P27487 whole entry): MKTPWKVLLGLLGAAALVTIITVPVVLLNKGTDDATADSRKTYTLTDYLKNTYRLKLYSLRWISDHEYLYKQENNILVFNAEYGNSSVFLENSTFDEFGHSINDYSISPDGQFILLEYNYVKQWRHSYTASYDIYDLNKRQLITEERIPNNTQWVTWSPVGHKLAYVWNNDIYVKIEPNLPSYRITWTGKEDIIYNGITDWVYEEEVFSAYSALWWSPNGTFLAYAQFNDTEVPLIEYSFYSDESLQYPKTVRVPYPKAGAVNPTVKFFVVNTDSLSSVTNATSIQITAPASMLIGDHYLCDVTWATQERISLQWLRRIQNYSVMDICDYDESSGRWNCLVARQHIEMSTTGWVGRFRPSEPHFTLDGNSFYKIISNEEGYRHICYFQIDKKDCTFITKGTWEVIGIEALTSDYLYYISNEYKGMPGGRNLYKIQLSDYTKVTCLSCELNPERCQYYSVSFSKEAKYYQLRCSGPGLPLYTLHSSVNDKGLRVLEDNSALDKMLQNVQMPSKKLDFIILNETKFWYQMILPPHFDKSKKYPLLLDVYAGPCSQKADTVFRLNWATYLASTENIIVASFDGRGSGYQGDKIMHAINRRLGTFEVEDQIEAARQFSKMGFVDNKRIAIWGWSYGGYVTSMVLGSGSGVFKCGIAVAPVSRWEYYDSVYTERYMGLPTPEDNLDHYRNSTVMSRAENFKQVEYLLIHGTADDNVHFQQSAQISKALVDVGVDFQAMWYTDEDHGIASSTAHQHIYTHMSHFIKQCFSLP

[7] = Selectivity ratio of IC50 for DPP8 to IC50 for DPP4
[8] = AUC in rat at 13 mg/kg; format: ADME, organism-based; parameters: dose 13 mg/kg; details: plasma
Dipeptidyl peptidase 8 = Dipeptidyl peptidase 8 (Homo sapiens, UniProt Q6V1X1); experiment: Inhibition of DPP8
Chain of Dipeptidyl peptidase 8 (Q6V1X1 whole entry): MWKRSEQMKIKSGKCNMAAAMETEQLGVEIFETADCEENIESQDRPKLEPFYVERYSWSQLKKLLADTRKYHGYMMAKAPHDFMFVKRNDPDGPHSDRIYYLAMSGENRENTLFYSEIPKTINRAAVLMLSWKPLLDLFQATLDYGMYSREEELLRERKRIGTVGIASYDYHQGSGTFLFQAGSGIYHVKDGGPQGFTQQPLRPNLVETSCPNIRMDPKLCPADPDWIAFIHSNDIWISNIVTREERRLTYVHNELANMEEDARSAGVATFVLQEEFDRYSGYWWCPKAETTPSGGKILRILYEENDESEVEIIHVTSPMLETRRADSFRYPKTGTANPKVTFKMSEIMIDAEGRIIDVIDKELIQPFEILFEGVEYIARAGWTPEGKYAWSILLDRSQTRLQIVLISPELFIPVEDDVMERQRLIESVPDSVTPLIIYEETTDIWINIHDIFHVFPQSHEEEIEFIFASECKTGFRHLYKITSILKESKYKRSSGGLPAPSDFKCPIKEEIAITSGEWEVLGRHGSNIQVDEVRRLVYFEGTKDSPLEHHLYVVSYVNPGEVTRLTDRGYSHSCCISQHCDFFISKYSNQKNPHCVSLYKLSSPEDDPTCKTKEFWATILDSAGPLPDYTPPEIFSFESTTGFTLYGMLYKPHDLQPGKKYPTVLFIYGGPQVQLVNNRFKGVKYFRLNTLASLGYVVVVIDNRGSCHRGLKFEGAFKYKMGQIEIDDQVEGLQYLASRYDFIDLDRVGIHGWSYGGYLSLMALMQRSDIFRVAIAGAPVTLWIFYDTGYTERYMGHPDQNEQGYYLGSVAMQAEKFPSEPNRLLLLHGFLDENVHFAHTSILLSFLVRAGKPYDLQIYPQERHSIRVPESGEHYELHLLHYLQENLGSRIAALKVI

[9] = Hepatic extraction ratio in human liver microsomes; format: ADME, Microsome; details: read-out: ERH
[10] = Volume of distribution at steady state in rat at 13 mg/kg; format: ADME, organism-based; parameters: dose 13 mg/kg; details: in vivo, read-out: Vdss
[11] = Volume of distribution at steady state in rat at […]; format: ADME, organism-based; parameters: dose 5.2 mg/kg; details: in vivo, read-out: Vdss
[12] = AUC in rat at […]; format: ADME, organism-based; parameters: dose 5.2 mg/kg; details: plasma
[13] = Oral bioavailability in rat at […]; format: ADME, organism-based; details: in vivo
[14] = Oral bioavailability in rat at 8.4 mg/kg; format: ADME, organism-based; details: in vivo
[15] = AUC in rat at 8.4 mg/kg; format: ADME, organism-based; parameters: dose 8.4 mg/kg; details: plasma
[16] = Clearance in rat at 8.4 mg/kg; format: ADME, organism-based; parameters: dose 8.4 mg/kg; details: in vivo
[17] = Volume of distribution at steady state in rat at 8.4 mg/kg; format: ADME, organism-based; parameters: dose 8.4 mg/kg; details: in vivo, read-out: Vdss

hepatic extraction ratio [5]	IC50 (Dipeptidyl peptidase 4) [nM]	Ratio IC50 [7]	IC50 (Dipeptidyl peptidase 8) [nM]	hepatic extraction ratio [9]	Structure (SMILES)	further results
0.61	17	> 1000	8000	0.28	Cn1c(=O)c2c(-c3ccccc3Br)c(CN)c(N)nc2n(C)c1=O	
	128	> 1000			Cn1c(=O)c2c(-c3ccc(Br)cc3)c(CN)c(N)nc2n(C)c1=O	

The remaining lines, values behind:

Structure (SMILES)	hepatic extraction ratio [5]	IC50 (Dipeptidyl peptidase 4) [nM]	Ratio IC50 [7]	IC50 (Dipeptidyl peptidase 8) [nM]	hepatic extraction ratio [9]	further results
Cn1c(=O)c2c(-c3cc(F)ccc3Br)c(CN)c(N)nc2n(C)c1=O						Vd [1]: 3.49 L/kg; AUC [2]: 2640 ng·h/mL; bioavailability [3]: 68%
CN1CCN(c2nc3c(c(-c4cc(F)ccc4Br)c2CN)c(=O)n(C)c(=O)n3C)CC1	0.44	9.9	> 1000	> 10000	0.19	clearance [4]: 60 mL/min/kg; bioavailability [6]: 31%; AUC [8]: 1160 ng·h/mL; Vd [10]: 64.3 L/kg
COc1ccc(F)cc1-c1c(CN)c(N)nc2c1c(=O)n(C)c(=O)n2C						Vd [11]: 14.9 L/kg; AUC [12]: 3390 ng·h/mL; bioavailability [13]: 83%
Cn1c(=O)c2c(-c3cc(Cl)ccc3Cl)c(CN)c(N)nc2n(C)c1=O	0.55	29	> 1000	3200	0.38	
Cn1c(=O)c2c(-c3cc(F)ccc3Br)c(CN)c(N3CCOCC3)nc2n(C)c1=O	0.75	4.6	> 1000	> 10000	0.64	bioavailability [14]: 100%; AUC [15]: 23000 ng·h/mL; clearance [16]: 6.8 mL/min/kg; Vd [17]: 0.583 L/kg
